Our source for the 3 h FOB score values is the OligoGym collection.

HELM strings list units from the 5' end as sugar, base in round brackets, then linkage (d deoxyribose, r ribose, m 2'-O-methyl, p phosphodiester). Strings are as the collection lists them; they lack the last nucleoside at the 3' end of the tested compound. [moe] = 2'-O-(2-methoxyethyl) (MOE); [sp] = phosphorothioate linkage; [m5C] = 5-methylcytosine

For this data set, the target named is UBE3A-ATS. The data set is described as follows: mouse, dose not given. Conditions: ASO.
“RNA1{[moe]([m5C])[sp].[moe](T)p.[moe](A)p.[moe](T)p.[moe]([m5C])p.d(A)[sp].d(A)[sp].d(G)[sp].d(G)[sp].d([m5C])[sp].d(T)[sp].d(G)[sp].d(T)[sp].d(T)[sp].d(A)[sp].[moe](T)p.[moe](T)p.[moe](G)[sp].[moe](G)}$$$$ (last 3' nucleoside missing)” returned a 3 h FOB score of 4 score 0-7.

“RNA1{[moe](T)[sp].[moe](T)p.[moe](T)p.[moe](A)p.[moe](T)p.d(T)[sp].d(G)[sp].d(G)[sp].d(T)[sp].d([m5C])[sp].d(A)[sp].d(T)[sp].d([m5C])[sp].d(T)[sp].d([m5C])[sp].[moe](G)p.[moe](G)p.[moe](G)[sp].[moe](T)}$$$$ (last 3' nucleoside missing)”: the 3 h FOB score worked out at 3.7 score 0-7. In turn, “RNA1{[moe](G)[sp].[moe]([m5C])p.[moe](T)p.[moe](T)p.[moe](A)p.d(T)[sp].d(G)[sp].d(T)[sp].d(A)[sp].d(G)[sp].d([m5C])[sp].d(T)[sp].d([m5C])[sp].d(A)[sp].d(G)[sp].[moe]([m5C])p.[moe](T)p.[moe]([m5C])[sp].[moe](A)}$$$$ (last 3' nucleoside missing)” had a 3 h FOB score of 1 score 0-7. In turn, “RNA1{[moe](A)[sp].[moe]([m5C])p.[moe](T)p.[moe]([m5C])p.[moe](A)p.d(T)[sp].d([m5C])[sp].d(A)[sp].d(T)[sp].d(G)[sp].d(A)[sp].d(T)[sp].d([m5C])[sp].d(T)[sp].d(T)[sp].[moe](G)p.[moe](G)p.[moe](T)[sp].[moe](A)}$$$$ (last 3' nucleoside missing)” had a 3 h FOB score of 3 score 0-7. Next, “RNA1{[moe](G)[sp].[moe](T)p.[moe](A)p.[moe](T)p.[moe](T)p.d(G)[sp].d(A)[sp].d([m5C])[sp].d(A)[sp].d([m5C])[sp].d([m5C])[sp].d(T)[sp].d([m5C])[sp].d([m5C])[sp].d(A)[sp].[moe](A)p.[moe]([m5C])p.[moe](T)[sp].[moe](G)}$$$$ (last 3' nucleoside missing)”: 2 score 0-7; “RNA1{[moe](T)[sp].[moe](T)p.[moe](A)p.[moe](G)p.[moe](T)p.d(A)[sp].d(T)[sp].d(G)[sp].d(T)[sp].d([m5C])[sp].d(G)[sp].d(A)[sp].d(G)[sp].d(A)[sp].d(A)[sp].[moe]([m5C])p.[moe](T)p.[moe]([m5C])[sp].[moe](A)}$$$$ (last 3' nucleoside missing)”: 5.5 score 0-7; “RNA1{[moe](A)[sp].[moe](A)p.[moe](A)p.[moe]([m5C])p.d(G)[sp].d([m5C])[sp].d(A)[sp].d(A)[sp].d(T)[sp].d(G)[sp].d(T)[sp].d(A)[sp].d(T)[sp].d([m5C])[sp].[moe](A)p.[moe](G)p.[moe](G)p.[moe]([m5C])[sp].[moe](A)}$$$$ (last 3' nucleoside missing)”: 2 score 0-7. Take “RNA1{[moe](G)[sp].[moe](T)p.[moe]([m5C])p.[moe](A)p.[moe](G)p.d(A)[sp].d(T)[sp].d(T)[sp].d([m5C])[sp].d([m5C])[sp].d(T)[sp].d(A)[sp].d(A)[sp].d(A)[sp].d(T)[sp].[moe](A)p.[moe]([m5C])p.[moe](G)[sp].[moe]([m5C])}$$$$ (last 3' nucleoside missing)”: the 3 h FOB score stood at 0 score 0-7.

The substance “RNA1{[moe](G)[sp].[moe](T)p.[moe](G)p.[moe](A)p.[moe](G)p.d([m5C])[sp].d(T)[sp].d(T)[sp].d(T)[sp].d(A)[sp].d([m5C])[sp].d(T)[sp].d([m5C])[sp].d(T)[sp].d(G)[sp].[moe]([m5C])p.[moe](A)p.[moe](A)[sp].[moe](T)}$$$$ (last 3' nucleoside missing)” displayed a 3 h FOB score of 1 score 0-7. Next, “RNA1{[moe](T)[sp].[moe]([m5C])p.[moe](G)p.[moe](G)p.[moe](A)p.d(T)[sp].d(A)[sp].d(T)[sp].d(A)[sp].d(G)[sp].d([m5C])[sp].d(T)[sp].d(T)[sp].d(T)[sp].d(T)[sp].[moe](A)p.[moe]([m5C])p.[moe](A)[sp].[moe](T)}$$$$ (last 3' nucleoside missing)”: 1 score 0-7; “RNA1{[moe](G)[sp].[moe](G)p.[moe]([m5C])p.[moe](A)p.[moe](A)p.d(T)[sp].d(G)[sp].d(G)[sp].d(A)[sp].d([m5C])[sp].d(T)[sp].d(T)[sp].d(A)[sp].d(G)[sp].d(T)[sp].[moe](A)p.[moe]([m5C])p.[moe](A)[sp].[moe]([m5C])}$$$$ (last 3' nucleoside missing)”: 2.3 score 0-7. For the substance “RNA1{[moe](T)[sp].[moe](T)p.[moe](G)p.[moe](G)p.[moe](T)p.[moe]([m5C])[sp].d(A)[sp].d(T)[sp].d([m5C])[sp].d(T)[sp].d([m5C])[sp].d(G)[sp].d(G)[sp].d(G)[sp].[moe](T)p.[moe](A)[sp].[moe](T)}$$$$ (last 3' nucleoside missing)”, the 3 h FOB score stood at 6.7 score 0-7. For “RNA1{[moe](G)[sp].[moe]([m5C])p.[moe](A)p.[moe](A)p.[moe](A)p.d(T)[sp].d(A)[sp].d([m5C])[sp].d(A)[sp].d(A)[sp].d(T)[sp].d(G)[sp].d(G)[sp].d(T)[sp].d(A)[sp].[moe](A)p.[moe](T)p.[moe]([m5C])[sp].[moe](G)}$$$$ (last 3' nucleoside missing)” the value was 4.2 score 0-7; for “RNA1{[moe](A)[sp].[moe]([m5C])p.[moe]([m5C])p.[moe]([m5C])p.[moe]([m5C])p.d(T)[sp].d(A)[sp].d(G)[sp].d(G)[sp].d(A)[sp].d(A)[sp].d(T)[sp].d(A)[sp].d(A)[sp].d(T)[sp].[moe](G)p.[moe](T)p.[moe](T)[sp].[moe](G)}$$$$ (last 3' nucleoside missing)”, 2 score 0-7; for “RNA1{[moe](G)[sp].[moe](A)p.[moe](A)p.[moe](A)p.[moe]([m5C])p.d([m5C])[sp].d(A)[sp].d(G)[sp].d([m5C])[sp].d([m5C])[sp].d(A)[sp].d(G)[sp].d(G)[sp].d(T)[sp].d(G)[sp].[moe](T)p.[moe]([m5C])p.[moe](T)[sp].[moe](T)}$$$$ (last 3' nucleoside missing)”, 3 score 0-7. In turn, “RNA1{[moe](T)[sp].[moe](G)p.[moe]([m5C])p.[moe](T)p.[moe](T)p.d([m5C])[sp].d(A)[sp].d([m5C])[sp].d([m5C])[sp].d(A)[sp].d(T)[sp].d(T)[sp].d(T)[sp].d(T)[sp].d(G)[sp].[moe](A)p.[moe]([m5C])p.[moe]([m5C])[sp].[moe](T)}$$$$ (last 3' nucleoside missing)” showed a 3 h FOB score of 1 score 0-7. Consider “RNA1{[moe](T)[sp].[moe](T)p.[moe](A)p.[moe](G)p.d(G)[sp].d(T)[sp].d([m5C])[sp].d(A)[sp].d(A)[sp].d([m5C])[sp].d([m5C])[sp].d(A)[sp].d(A)[sp].d(T)[sp].[moe](T)p.[moe](T)p.[moe](G)p.[moe]([m5C])[sp].[moe](T)}$$$$ (last 3' nucleoside missing)”, for which the 3 h FOB score is 0 score 0-7. For “RNA1{[moe](A)[sp].[moe](T)p.[moe](T)p.[moe]([m5C])p.[moe](A)p.d(G)[sp].d([m5C])[sp].d(A)[sp].d([m5C])[sp].d(T)[sp].d(T)[sp].d(A)[sp].d(G)[sp].d(G)[sp].d(T)[sp].[moe](A)p.[moe](G)p.[moe](T)[sp].[moe](T)}$$$$ (last 3' nucleoside missing)” the value was 3.3 score 0-7; for “RNA1{[moe](T)[sp].[moe](G)[sp].[moe]([m5C])[sp].[moe]([m5C])[sp].[moe](A)[sp].d(T)[sp].d([m5C])[sp].d(T)[sp].d(T)[sp].d([m5C])[sp].d(A)[sp].d(A)[sp].d(G)[sp].d(A)[sp].d([m5C])[sp].[moe](T)[sp].[moe](A)[sp].[moe](A)[sp].[moe](G)}$$$$ (last 3' nucleoside missing)”, 6.8 score 0-7; for “RNA1{[moe](T)[sp].[moe](A)p.[moe](T)p.[moe](T)p.[moe](G)p.d([m5C])[sp].d([m5C])[sp].d(T)[sp].d(T)[sp].d([m5C])[sp].d(A)[sp].d([m5C])[sp].d(T)[sp].d(G)[sp].d([m5C])[sp].[moe](T)p.[moe](G)p.[moe]([m5C])[sp].[moe]([m5C])}$$$$ (last 3' nucleoside missing)”, 3.2 score 0-7.

Substance “RNA1{[moe](T)[sp].[moe](G)p.[moe](T)p.[moe](G)p.[moe](T)p.d(T)[sp].d(T)[sp].d(T)[sp].d(T)[sp].d([m5C])[sp].d([m5C])[sp].d(A)[sp].d(T)[sp].d(T)[sp].d(T)[sp].[moe](T)p.[moe](T)p.[moe]([m5C])[sp].[moe](T)}$$$$ (last 3' nucleoside missing)” gave a 3 h FOB score of 0 score 0-7. In the case of “RNA1{[moe](G)[sp].[moe](A)p.[moe](T)p.[moe](T)p.[moe](G)p.d(A)[sp].d(T)[sp].d([m5C])[sp].d(A)[sp].d(T)[sp].d(G)[sp].d(T)[sp].d(T)[sp].d(A)[sp].d(T)[sp].[moe](G)p.[moe]([m5C])p.[moe]([m5C])[sp].[moe]([m5C])}$$$$ (last 3' nucleoside missing)”, the 3 h FOB score is 2 score 0-7. Next, “RNA1{[moe](G)[sp].[moe](G)p.[moe](G)p.[moe](T)p.[moe]([m5C])p.d(G)[sp].d(G)[sp].d(A)[sp].d(T)[sp].d(A)[sp].d(T)[sp].d(A)[sp].d(G)[sp].d([m5C])[sp].d(T)[sp].[moe](T)p.[moe](T)p.[moe](T)[sp].[moe](A)}$$$$ (last 3' nucleoside missing)”: 5 score 0-7; “RNA1{[moe]([m5C])[sp].[moe](G)p.[moe](T)p.[moe](T)p.[moe](A)p.d(T)[sp].d(T)[sp].d([m5C])[sp].d(A)[sp].d(G)[sp].d(T)[sp].d([m5C])[sp].d(T)[sp].d([m5C])[sp].d(A)[sp].[moe](G)p.[moe](G)p.[moe](G)[sp].[moe](A)}$$$$ (last 3' nucleoside missing)”: 4.5 score 0-7. “RNA1{[moe](A)[sp].[moe](G)p.[moe](G)p.[moe](T)p.[moe]([m5C])p.d(A)[sp].d(A)[sp].d([m5C])[sp].d([m5C])[sp].d(A)[sp].d(A)[sp].d(T)[sp].d(T)[sp].d(T)[sp].d(G)[sp].[moe]([m5C])p.[moe](T)p.[moe](A)[sp].[moe](T)}$$$$ (last 3' nucleoside missing)” gave a 3 h FOB score of 5.3 score 0-7.
